Measured values: patent US20200323991A1, “PBD CONJUGATES FOR TREATING DISEASES” (ENDOCYTE, INC., priority 2016, published 2020)
Like-named read-outs stand apart in the source and are kept apart here.

Legend:
KB tumor = assay: Antitumor activity in large KB tumor model; type: in vivo, mice; settings: once a week for two weeks
Procedure: Female Balb/c nu/nu mice were fed ad libitum with folate-deficient chow (Harlan diet #TD01013) for the duration of the experiment. KB tumor cells were inoculated subcutaneously at the right flank of each mouse. Mice were dosed after the tumors reached an average of 100 and 180 mm^3 through the lateral tail vein under sterile conditions in a volume of […] of phosphate-buffered saline (PBS).
Growth of each s.c. tumor was followed by measuring the tumor two times per week. Tumors were measured in two perpendicular directions using Vernier calipers, and their volumes were calculated as 0.5×L×W^2, where L=measurement of longest axis in mm and W=measurement of axis perpendicular to L in mm.

KB cells = type: cell-based, human; settings: read-out: IC50 value, 3H-thymidine incorporation
Procedure: The conjugates described herein were evaluated using an in vitro cytotoxicity assay that predicted the ability of the drug to inhibit the growth of the corresponding targeted cells, such as, but not limited to the following
It is to be understood that the choice of cell type can be made on the basis of the susceptibility of those selected cells to the drug that forms the conjugate, and the relative expression of the cell surface receptor or target antigen. The test conjugates were conjugates of a cell surface receptor or target antigen binding compound and PBD prodrugs, poly-PBD prodrugs, and mixed PBDs, as described herein. The test cells were exposed to varying concentrations of the conjugates, and optionally also in the absence or presence of at least a 100-fold excess of the unconjugated cell surface receptor or target antigen binding compound for competition studies to assess activity as being specific to the cell surface receptor or target antigen.
KB cells were seeded in individual 24-well Falcon plates and allowed to form nearly confluent monolayers overnight in folate free Roswell Park Memorial Institute (FFRPMI)/Heat-Inactivated Fetal Calf Serum (HIFCS). Thirty minutes prior to the addition of folate-conjugate, spent medium was aspirated from all wells and replaced with either fresh FFRPMI or FFRPMI supplemented with 100 μM folic acid. […] Cells were pulsed for 2 h at 37° C., rinsed 4 times with 0.5 mL of medium and then chased in 1 mL of fresh medium up to 72 h. Spent medium was aspirated from all wells and replaced with fresh medium containing 5 μCi/mL of ^3H-thymidine. Following a 2 h incubation at 37° C., cells were washed 3 times with 0.5 mL of PBS and then treated with 0.5 mL of ice-cold 5% trichloroacetic acid per well. After 15 min, the trichloroacetic acid was aspirated and the cells solubilized by the addition of 0.5 mL of 0.25 N sodium hydroxide for 15 min at room temperature. Four hundred and fifty […] of each solubilized sample were transferred to scintillation vials containing 3 mL of Ecolume scintillation cocktail and counted in a liquid scintillation counter. Final results were expressed as the percentage of ^3H-thymidine incorporation relative to untreated controls.

[1] = with excess folate (100 μM folic acid)
[2] = without excess folate, 2 h pulse, chase up to 72 h

Row | SMILES | cures (KB tumor; 0.5 μmol/kg) [%] | IC50 (KB cells; [1]) [nM] | IC50 (KB cells; [2]) [nM] | complete responses (KB tumor; 0.5 μmol/kg) [%] | cures (KB tumor; 0.2 μmol/kg) [%] | PRs (partial responses) (KB tumor; 1 μmol/kg) [%]
1 | C=C1C[C@H]2[C@H](O)N(C(=O)OCC(C)SSC[C@H](CC(=O)[C@H](CC(=O)O)NC(=O)[C@H](CC(=O)O)NC(=O)[C@H](CCCNC(=N)N)NC(=O)[C@H](CC(=O)O)NC(=O)CC[C@H](NC(=O)c3ccc(NCc4cnc5nc(N)[nH]c(=O)c5n4)cc3)C(=O)O)C(=O)O)c3cc(OCCCCCOc4cc5c(cc4OC)C(=O)N4CC(=C)C[C@H]4[C@H](O)N5C(=O)OCC(C)SSC[C@H](NC(=O)[C@H](CC(=O)O)NC(=O)[C@H](CC(=O)O)NC(=O)[C@H](CCCNC(=N)N)NC(=O)[C@H](CC(=O)O)NC(=O)CC[C@H](NC(=O)c4ccc(NCc5cnc6nc(N)[nH]c(=O)c6n5)cc4)C(=O)O)C(=O)O)c(OC)cc3C(=O)N2C1 (stereo partly drawn) [Conjugate 2] | 100 | 16 | 0.14 |  |  | 
2 | C=C1C[C@H]2C=Nc3cc(OCCCCCOc4cc(N)c(C(=O)N5CC(=C)C[C@H]5C5OCCN5C(=O)OCC(C)SSC[C@H](NC(=O)[C@H](CC(=O)O)NC(=O)[C@H](CC(=O)O)NC(=O)[C@H](CCCNC(=N)N)NC(=O)[C@H](CC(=O)O)NC(=O)CC[C@H](NC(=O)c5ccc(NCc6cnc7nc(N)[nH]c(=O)c7n6)cc5)C(=O)O)C(=O)O)cc4OC)c(OC)cc3C(=O)N2C1 (stereo partly drawn) [Conjugate 4] | 100 | 6 | 0.049 |  |  | 
3 | C=C1C[C@H]2C=Nc3cc(OCCCCCOc4cc(N)c(C(=O)N5CC(=C)C[C@H]5C5OCCN5C(=O)OCC(C)(C)SSCCC(=O)NCCNC(=O)CCOCCOCCOCCOCCNC(=O)CCN5C(=O)CC(SC[C@@H](NC(=O)[C@H](CCC(=O)NC[C@H](O)[C@@H](O)[C@H](O)[C@H](O)CO)NC(=O)[C@@H](CCC(=O)O)NC(=O)[C@H](CCC(=O)NC[C@H](O)[C@@H](O)[C@H](O)[C@H](O)CO)NC(=O)[C@@H](CCC(=O)O)NC(=O)[C@H](CCC(=O)NC[C@H](O)[C@@H](O)[C@H](O)[C@H](O)CO)NC(=O)CC[C@H](NC(=O)c6ccc(NCc7cnc8nc(N)[nH]c(=O)c8n7)cc6)C(=O)O)C(=O)O)C5=O)cc4OC)c(OC)cc3C(=O)N2C1 (stereo partly drawn) [Conjugate 6] | 50 | 3 | 0.048 | 50 |  | 
4 | C=C1C[C@H]2C=Nc3cc(OCCCCCOc4cc(N)c(C(=O)N5CC(=C)C[C@H]5C5OCCN5C(=O)OCC(C)(C)SSCCC(=O)NCCNC(=O)CCOCCOCCOCCOCCOCCOCCOCCOCCOCCOCCOCCOCCOCCOCCOCCOCCOCCOCCOCCOCCOCCOCCOCCOCCOCCOCCOCCOCCOCCOCCOCCOCCOCCOCCOCCOCCNC(=O)CCN5C(=O)CC(SC[C@H](NC(=O)[C@H](CC(=O)O)NC(=O)[C@H](CC(=O)O)NC(=O)[C@H](CCCNC(=N)N)NC(=O)[C@H](CC(=O)O)NC(=O)CC[C@H](NC(=O)c6ccc(NCc7cnc8nc(N)[nH]c(=O)c8n7)cc6)C(=O)O)C(=O)O)C5=O)cc4OC)c(OC)cc3C(=O)N2C1 (stereo partly drawn) [Conjugate 7] | 100 | 5 | 0.13 |  |  | 
5 | C=C1C[C@H]2C=Nc3cc(OCCCCCOc4cc(N)c(C(=O)N5CC(=C)C[C@H]5C5OCCN5C(=O)OCC(C)(C)SSCCC(=O)NCCNC(=O)CCOCCOCCOCCOCCOCCOCCOCCOCCOCCOCCOCCOCCNC(=O)CCN5C(=O)CC(SC[C@H](NC(=O)[C@H](CC(=O)O)NC(=O)[C@H](CC(=O)O)NC(=O)[C@H](CCCNC(=N)N)NC(=O)[C@H](CC(=O)O)NC(=O)CC[C@H](NC(=O)c6ccc(NCc7cnc8nc(N)[nH]c(=O)c8n7)cc6)C(=O)O)C(=O)O)C5=O)cc4OC)c(OC)cc3C(=O)N2C1 (stereo partly drawn) [Conjugate 8] |  | 0.3 | 0.055 |  | 100 | 
6 | C=C1C[C@H]2C=Nc3cc(OCCCCCOc4cc5c(cc4OC)C(=O)N4CC(=C)C[C@H]4C(=O)N5COC(=O)CCCSSC[C@@H](NC(=O)[C@H](CCC(=O)NC[C@H](O)[C@@H](O)[C@H](O)[C@H](O)CO)NC(=O)[C@@H](CCC(=O)O)NC(=O)[C@H](CCC(=O)NC[C@H](O)[C@@H](O)[C@H](O)[C@H](O)CO)NC(=O)[C@@H](CCC(=O)O)NC(=O)[C@H](CCC(=O)NC[C@H](O)[C@@H](O)[C@H](O)[C@H](O)CO)NC(=O)CC[C@H](NC(=O)c4ccc(NCc5cnc6nc(N)[nH]c(=O)c6n5)cc4)C(=O)O)C(=O)O)c(OC)cc3C(=O)N2C1 [Conjugate 9] |  | 67 | 0.8 |  |  | 0
7 | C=C1C[C@H]2C=Nc3cc(OCCCCCOc4cc(N)c(C(=O)N5CC(=C)C[C@H]5C5OCCN5C(=O)OCC(C)(C)SSCCC(=O)NCCNC(=O)CCCCCN5C(=O)CC(SC[C@H](NC(=O)[C@H](CC(=O)O)NC(=O)[C@H](CC(=O)O)NC(=O)[C@H](CCCNC(=N)N)NC(=O)[C@H](CC(=O)O)NC(=O)CC[C@H](NC(=O)c6ccc(NCc7cnc8nc(N)[nH]c(=O)c8n7)cc6)C(=O)O)C(=O)O)C5=O)cc4OC)c(OC)cc3C(=O)N2C1 (stereo partly drawn) [Conjugate 22] |  | 1.4 | 0.14 |  |  | 
8 | C=C1C[C@H]2C=Nc3cc(OCCCCCOc4cc5c(cc4OC)C(=O)N4CC(=C)C[C@H]4C(O)N5C(=O)OCC(C)(C)SSCCC(=O)NCCNC(=O)CCOCCOCCOCCOCCNC(=O)CCN4C(=O)CC(SC[C@H](NC(=O)[C@H](CC(=O)O)NC(=O)[C@H](CC(=O)O)NC(=O)[C@H](CCCNC(=N)N)NC(=O)[C@H](CC(=O)O)NC(=O)CC[C@H](NC(=O)c5ccc(NCc6cnc7nc(N)[nH]c(=O)c7n6)cc5)C(=O)O)C(=O)O)C4=O)c(OC)cc3C(=O)N2C1 (stereo partly drawn) [Conjugate 24] |  | 1.8 | 0.079 |  |  | 
9 | C=C1C[C@H]2C=Nc3cc(OCCCCCOc4cc(NC(=O)OCCSSC[C@@H](C)NC(=O)CCOCCOCCOCCOCCNC(=O)[C@H](CC(=O)O)NC(=O)[C@H](CC(=O)O)NC(=O)[C@H](CCCNC(=N)N)NC(=O)[C@H](CC(=O)O)NC(=O)CC[C@H](NC(=O)c5ccc(NCc6cnc7nc(N)[nH]c(=O)c7n6)cc5)C(=O)O)c(C(=O)N5CC(=C)C[C@H]5/C=N/OC)cc4OC)c(OC)cc3C(=O)N2C1 [Conjugate 26] |  | 1.6 | 0.028 |  |  | 
10 | C=C1C[C@H]2C=Nc3cc(OCCCCCOc4cc(NC(=O)OCC(C)SSC[C@H](NC(=O)CCOCCOCCOCCOCCNC(=O)[C@H](CC(=O)O)NC(=O)[C@H](CC(=O)O)NC(=O)[C@H](CCCNC(=N)N)NC(=O)[C@H](CC(=O)O)NC(=O)CC[C@H](NC(=O)c5ccc(NCc6cnc7nc(N)[nH]c(=O)c7n6)cc5)C(=O)O)C(=O)O)c(C(=O)N5CC(=C)C[C@H]5/C=N/OC)cc4OC)c(OC)cc3C(=O)N2C1 (stereo partly drawn) [Conjugate 27] |  | 6.1 | 0.091 |  |  | 
11 | C=C1C[C@H]2C=Nc3cc(OCCCCCOc4cc(NC(=O)OCCCSSC[C@H](NC(=O)[C@H](CC(=O)O)NC(=O)[C@H](CC(=O)O)NC(=O)[C@H](CCCNC(=N)N)NC(=O)[C@H](CC(=O)O)NC(=O)CC[C@H](NC(=O)c5ccc(NCc6cnc7nc(N)[nH]c(=O)c7n6)cc5)C(=O)O)C(=O)O)c(C(=O)N5CC(=C)C[C@H]5/C=N/OC)cc4OC)c(OC)cc3C(=O)N2C1 [Conjugate 31] |  |  | 0.647 |  |  | 
12 | C=C1C[C@H]2C=Nc3cc(OCCCCCOc4cc(NC(=O)OCCSSC(C)(C)[C@H](NC(=O)[C@H](CC(=O)O)NC(=O)[C@H](CC(=O)O)NC(=O)[C@H](CCCNC(=N)N)NC(=O)[C@H](CC(=O)O)NC(=O)CC[C@H](NC(=O)c5ccc(NCc6cnc7nc(N)[nH]c(=O)c7n6)cc5)C(=O)O)C(=O)O)c(C(=O)N5CC(=C)C[C@H]5/C=N/OC)cc4OC)c(OC)cc3C(=O)N2C1 [Conjugate 32] |  | 57 | 2 |  |  | 
